Results: patent US11633444B2, “Sporoderm-removed Ganoderma lucidum spore powder, granule and preparation method thereof” (ZHEJIANG SHOUXIANGU PHARMACEUTICAL COMPANY, LTD, priority 2017, dated 2023)
Where a name gives a salt, the structure may show the parent alone.

How the values were obtained:
Assay type in all cases: in vivo
[1] = tested on: human lymphatic cancer (Ramos) transplanted tumor; test: Zebrafish human lymphatic cancer (Ramos) transplanted tumor model; conditions: 2 days at 35° C.; for Pixel of Sum of Fluorescence Intensities (mean ± SE): 5 μM
Excerpt: Human lymphatic cancer (Ramos) cells were labeled with a red fluorescent dye (CM-Dil), and transplanted into zebrafish yolk sacs by microinjection, with about 200 cells being transplanted per zebrafish, so as to establish a zebrafish human lymphatic cancer transplanted tumor model.
(§1) Human lymphatic cancer (Ramos) cells were labeled with CM-Dil, and transplanted into 2 dpf wild type AB strain zebrafish yolk sacs by microinjection, with about 200 cells being transplanted per zebrafish, so as to establish a zebrafish human lymphatic cancer transplanted model; and the zebrafishes injected with the human lymphatic cancer cells were fed at 35° C. until 3 dpf.
(§2) Zebrafishes with better consistence in transplanted tumor cells were picked out under a microscope, randomly assigned to a 6-well plate, and were given in a water-dissolving administration manner respectively with the samples at concentrations respectively of 28, 83 and 250 μg/mL and the positive control drug vincristine at a concentration of 5 μM; and meanwhile a model control group was set, where there were 30 zebrafishes per well (concentration group), and the volume of each well was 5 mL. The zebrafishes in each experiment group were continually cultured at 35° C., and after 2 days, 10 zebrafishes were randomly selected from each experiment group to observe under a fluorescence microscope, and photographs of the 10 zebrafishes were taken and saved; and the photographs were analyzed using Nikon NIS-Elements D 3.10 Advanced image processing software to calculate the fluorescence intensities of cancer cells. The inhibitory effect of the sample on the zebrafish lymphatic cancer (Ramos) transplanted tumor was evaluated with the fluorescence intensities, and the tumor inhibition effect was calculated using the following equation.
A concentration-effect curve was drawn according to a growth inhibition effect on the transplanted tumor; statistical analysis was performed by variance analysis and Dunnett's T-test, where p<0.05 was considered as a significant difference; such that a representative experimental map was provided.

[2] = tested on: human lung adenocarcinoma (A549) transplanted tumor; test: Zebrafish human lung adenocarcinoma (A549) transplanted tumor model; conditions: A549, 50 μM, 2 days at 35° C., n = 10
Excerpt: Human lung adenocarcinoma (A549) cells were labeled with a red fluorescent dye (CM-Dil), and transplanted into zebrafish yolk sacs by microinjection, with about 200 cells being transplanted per zebrafish, so as to establish a zebrafish human lung adenocarcinoma transplanted tumor model.
as §1, with “Human lung adenocarcinoma (A549)” for “Human lymphatic cancer (Ramos)”, “human lung adenocarcinoma (A549)” for “human lymphatic cancer”, “the A549” for “the human lymphatic cancer”
as §2, with “drug cis-platinum” for “drug vincristine”, “of 50” for “of 5”, “experiment (concentration)” for “experiment”, “zebrafish lung adenocarcinoma (A549)” for “zebrafish lymphatic cancer (Ramos)”, “equation. […]” for “equation.”

[3] = tested on: human gastric cancer (SGC-7901) transplanted tumor; test: Zebrafish human gastric cancer (SGC-7901) transplanted tumor model; conditions: SGC-7901, 50 μM, 2 days at 35° C., n = 10
Excerpt: Human gastric cancer (SGC-7901) cells were labeled with a red fluorescent dye (CM-Dil), and transplanted into zebrafish yolk sacs by microinjection, with about 200 cells being transplanted per zebrafish, so as to establish a zebrafish human gastric cancer transplanted tumor model.
as §1, with “Human gastric” for “Human lymphatic”, “cancer (SGC-7901)” for “cancer (Ramos)”, “human gastric” for “human lymphatic”, “cancer (SGC-7901)” for “cancer”, “the SGC-7901” for “the human lymphatic cancer”
Zebrafishes with better consistence in transplanted tumor cells were picked out under a microscope, randomly assigned to a 6-well plate, and were given in a water-dissolving administration manner respectively with the samples at concentrations respectively of 28, 83 and 250 μg/mL and the positive control drug cis-platinum at a concentration of 50 μM; and meanwhile a model control group was set, where there were 30 zebrafishes per well (concentration group), and the volume of each well was 5 mL. The zebrafishes in each experiment (concentration) group were continually cultured at 35° C., and after 2 days, 10 zebrafishes were randomly selected from each experiment (concentration) group to observe under a fluorescence microscope, and photographs of the 10 zebrafishes were taken and saved; and the photographs were analyzed using Nikon NIS-Elements D 3.10 Advanced image processing software to calculate the fluorescence intensities of cancer cells. The inhibitory effects of samples on the zebrafish gastric cancer (SGC-7901) transplanted tumor were respectively evaluated with the fluorescence intensities, and the tumor inhibition effect was calculated using the following equation. […]

| Compound | Pixel of Sum of Fluorescence Intensities (mean ± SE) ([1]; n = 10) [pixels] | Pixel of Sum of Fluorescence Intensities (mean ± SE) ([1]; n = 10, listed as vincristine) | inhibition at 5 µM ([1]; Danio rerio, 48 h, n = 10, read-out: Inhibition Effect) [%] | Inhibition Effect [2] [%] | Pixel of Sum of Fluorescence Intensities (mean ± SE) [2] [pixels] | Pixel of Sum of Fluorescence Intensities (mean ± SE) ([2]; listed as cis-platinum) | Inhibition Effect [3] [%] | Pixel of Sum of Fluorescence Intensities (mean ± SE) [3] [pixels] | Pixel of Sum of Fluorescence Intensities (mean ± SE) ([3]; listed as cis-platinum) |
| --- | --- | --- | --- | --- | --- | --- | --- | --- | --- |
| CC[C@]1(O)C[C@H]2CN(CCc3c([nH]c4ccccc34)[C@@](C(=O)OC)(c3cc4c(cc3OC)N(C=O)[C@H]3[C@@](O)(C(=O)OC)[C@H](OC(C)=O)[C@]5(CC)C=CCN6CC[C@]43[C@@H]65)C2)C1 [Vincristine, Vincristine sulfate] | 153919 ± 13691 | 153,919 pixels | 33 |  |  |  |  |  |  |
| N.N.[Cl][Pt][Cl] [Cis-platinum] |  |  |  | 32 | 137287 ± 7835 | 137,287 pixels | 36 | 237655 ± 12361 | 237,655 pixels |
